Patent US9371328B2, “Imidazopyridazinecarbonitriles useful as kinase inhibitors” (BRISTOL-MYERS SQUIBB COMPANY, priority 2008, dated 2016)

What was measured:
CK2A1 (CK2α/β) = target: T1, CK2A1 (CK2α/β) (Homo sapiens, UniProt P68400); experiment: CK2 kinase assay, CK2A1 (CK2α/β); type: biochemical; settings: Table 1; read-out: CK2A1 (CK2α/β) (IC50)
T1 construct: made in house
Method: (§1) The effectiveness of compounds of the present invention as inhibitors of protein kinases can be readily tested by assays known to those skilled in the art. For example, in vitro protein kinase assays may be conducted with a relevant purified protein kinase and an appropriate synthetic substrate to determine the inhibitory activity of the compounds. […] Reaction mixtures were incubated at 30° C. for 1 hour, and reaction products were captured by binding to phosphocellulose (P81) filter plates. Incorporation of radioactive phosphate into the peptide substrate was determined by liquid scintillation counting. The potency of compounds in inhibiting CK2 is expressed as IC50, defined as the concentrations of compounds required to inhibit the enzymatic activity by 50%.
(§2) The inhibitory activity of the instant compounds may also be measured by recombinant CK2 holoenzyme kinase assays. The assays were performed in U-bottom 384-well plates. The final assay volume was 30 μl prepared from 15 μl additions of enzyme and substrates (fluoresceinated peptide FL-RRRADDSDDDDD-NH2 and ATP) and test compounds in assay buffer (20 mM HEPES pH 7.4, 10 mM MgCl2, 100 mM NaCl, 0.015% Brij35 and 0.25 mM DTT). The reaction was initiated by the combination of bacterially expressed, CK2 α/β or CK2 α′/β holoenzyme with substrates and test compounds. The reaction was incubated at room temperature for 60 minutes and terminated by adding 30 μl of 35 mM EDTA to each sample. The reaction mixture was analyzed on the Caliper LABCHIP® 3000 (Caliper, Hopkinton, Mass.) by electrophoretic separation of the fluorescent substrate and phosphorylated product. Inhibition data were calculated by comparison to no enzyme control reactions for 100% inhibition and vehicle-only reactions for 0% inhibition. The final concentration of reagents in the CK2 α/β assay was 25 μM ATP, 1.5 μM FL-RRRADDSDDDDD-NH2, […] CK2 α/β holoenzyme, and 1.6% DMSO. The final concentration of reagents in the CK2 α′/β assay was 10 μM ATP, 1.5 μM FL-RRRADDSDDDDD-NH2, 100 pM CK2 α′/β holoenzyme, and 1.6% DMSO. Dose response curves were generated to determine the concentration required inhibiting 50% of kinase activity (IC50). Compounds were dissolved at 10 mM in dimethylsulfoxide (DMSO) and evaluated at eleven concentrations. IC50 values were derived by non-linear regression analysis.

CK2A2 (CK2α′/β) = target: T2, CK2A2 (CK2α′/β) (Homo sapiens, UniProt P19784); experiment: CK2 kinase assay, CK2A2 (CK2α′/β); type: biochemical; settings: Table 1; read-out: CK2A2 (CK2α′/β) (IC50)
T2 construct: made in house
T2 sequence (P19784 whole entry, species assumed): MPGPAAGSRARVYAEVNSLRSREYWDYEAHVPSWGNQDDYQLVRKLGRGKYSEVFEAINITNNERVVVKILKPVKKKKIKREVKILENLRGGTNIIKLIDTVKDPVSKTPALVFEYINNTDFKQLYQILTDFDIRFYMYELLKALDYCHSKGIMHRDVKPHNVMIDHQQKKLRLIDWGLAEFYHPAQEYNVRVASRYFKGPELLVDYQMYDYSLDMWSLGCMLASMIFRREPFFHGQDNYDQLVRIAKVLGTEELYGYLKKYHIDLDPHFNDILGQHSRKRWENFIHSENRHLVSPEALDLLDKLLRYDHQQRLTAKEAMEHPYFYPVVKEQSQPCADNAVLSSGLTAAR
T2 sequence (P67870 whole entry partner, species assumed): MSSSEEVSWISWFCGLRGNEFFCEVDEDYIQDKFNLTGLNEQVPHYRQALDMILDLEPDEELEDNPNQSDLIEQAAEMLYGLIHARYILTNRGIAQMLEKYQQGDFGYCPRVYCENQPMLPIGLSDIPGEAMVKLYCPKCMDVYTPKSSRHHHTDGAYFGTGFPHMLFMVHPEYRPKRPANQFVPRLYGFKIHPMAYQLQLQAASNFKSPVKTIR
Method: as §1, §2

HCT116 = experiment: Cell proliferation inhibition assay (MTT/MTS); type: cell-based; settings: Homo sapiens, HCT-116, Table 1, 72 h with compound
Method: Compounds were evaluated for their ability to inhibit cell proliferation, using an assay that measures mitochondrial metabolic activity, that is directly correlated with cell numbers. Cells were plated at 2000 cells/well in 96-well plates and were cultured for 24 h in RPMI-1640 supplemented with 2% fetal bovine serum, before test compounds were added. Compounds were diluted in culture medium such that the final concentration of dimethyl sulfoxide never exceeded 1%. Following the addition of compounds, the cells were cultured for an additional 72 h before cell viability was determined by measuring the conversion of 3-(4,5-dimethylthiazol-2-yl)-2,5-diphenyltetrazolium bromide (MTT) dye using the CellTiter96 kit (Promega) or by measuring the conversion of [3-(4,5-dimethylthiazol-2-yl)-5-(3-carboxymethoxyphenyl)-2-(4-sulfophenyl)-2H-tetrazolium (MTS) dye using the CELLTITER 96® AQueous (Promega).

T1 sequence (P68400 whole entry, species assumed): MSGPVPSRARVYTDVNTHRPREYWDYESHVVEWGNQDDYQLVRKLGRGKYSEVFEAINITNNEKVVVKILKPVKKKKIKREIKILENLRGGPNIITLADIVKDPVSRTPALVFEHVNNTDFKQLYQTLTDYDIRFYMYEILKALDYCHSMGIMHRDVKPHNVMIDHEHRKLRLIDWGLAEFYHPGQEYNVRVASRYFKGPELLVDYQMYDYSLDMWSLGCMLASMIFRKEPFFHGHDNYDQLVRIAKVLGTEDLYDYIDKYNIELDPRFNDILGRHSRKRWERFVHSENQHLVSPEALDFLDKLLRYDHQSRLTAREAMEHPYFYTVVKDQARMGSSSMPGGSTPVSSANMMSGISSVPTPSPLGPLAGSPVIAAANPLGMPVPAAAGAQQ
T1 sequence (P67870 whole entry partner, species assumed): as the sequence (P67870 whole entry partner, species assumed) above

SMILES	IC50 (CK2A1 (CK2α/β))	IC50 (CK2A2 (CK2α′/β))	IC50 (HCT116)
COc1cc(Nc2cc(NC3CC3)c3ncc(C#N)n3n2)cc(-n2nnnc2C)c1 [Example 37, 8-(Cyclopropylamino)-6-((3-methoxy-5-(5-methyl-1H-tetrazol-1-yl)phenyl)amino) imidazo[1,2-b]pyridazine-3-carbonitrile]	11 nM	4.5 nM	163 nM
CC(=O)N1CCc2ccc(Nc3cc(NC4CC4)c4ncc(C#N)n4n3)cc21 [Example 64, 6-((1-Acetyl-2,3-dihydro-1H-indol-6-yl)amino)-8-(cyclopropylamino)imidazo [1,2-b]pyridazine-3-carbonitrile]	12 nM	1 nM	48 nM
COC(=O)Nc1cc(Nc2cc(NC3CC3)c3ncc(C#N)n3n2)ccc1C(=O)N1CCN(C)CC1 [Example 93, Methyl (5-((3-cyano-8-(cyclopropylamino)imidazo [1,2-b]pyridazin-6-yl)amino)-2-((4-methyl-1-piperazinyl)carbonyl)phenyl) carbamate]	712 nM	68.4 nM	> 1000 nM
CCc1ccc(Nc2cc(NC3CC3)c3ncc(C#N)n3n2)cc1NS(C)(=O)=O [Example 235, N-(5-((3-Cyano-8-(cyclopropylamino)imidazo [1,2-b]pyridazin-6-yl)amino)-2-ethylphenyl) methanesulfonamide]	25 nM	6.4 nM	433 nM
N#Cc1cnc(Nc2cc(NC3CC3)c3ncc(C#N)n3n2)s1 [Example 57, 6-((5-Cyano-1,3-thiazol-2-yl)amino)-8-(cyclopropylamino) imidazo[1,2-b]pyridazine-3-carbonitrile]	310 nM	58.2 nM	521 nM
Cn1cnnc1-c1cccc(Nc2cc(NC3CC3)c3ncc(C#N)n3n2)c1 [Example 48, 8-(Cyclopropylamino)-6-((3 - (4-methyl-4H-1,2,4-triazol-3-yl)phenyl)amino) imidazo[1,2-b]pyridazine-3-carbonitrile]	417 nM	106 nM	460 nM
COc1ccc(-n2cncn2)cc1Nc1cc(NC2CC2)c2ncc(C#N)n2n1 [Example 160, 8-(Cyclopropylamino)-6-((2-methoxy-5-(1H-1,2,4-triazol-1-yl)phenyl)amino)imidazo [1,2-b]pyridazine-3-carbonitrile]	19.7 nM	4.6 nM	45 nM
N#Cc1ccc(Cl)c(Nc2cc(NC3CC3)c3ncc(C#N)n3n2)c1 [Example 47, 6-((2-Chloro-5-cyanophenyl)amino)-8-(cyclopropylamino) imidazo[1,2-b]pyridazine-3-carbonitrile]	7.4 nM	5.2 nM	41 nM
N#Cc1ccc(Nc2cc(NC3CC3)c3ncc(C#N)n3n2)cc1C(F)(F)F [Example 31, 6-((4-Cyano-3-(trifluoromethyl)phenyl)amino)-8-(cyclopropylamino)imidazo [1,2-b]pyridazine-3-carbonitrile]	143 nM	25.7 nM	460 nM
N#Cc1cnc2c(NC3CC3)cc(Nc3cc(-n4cncn4)ccc3OC(F)(F)F)nn12 [Example 167, 8-(Cyclopropylamino)-6-((5-(1H-1,2,4-triazol-1-yl)-2-(trifluoromethoxy)phenyl)amino)imidazo[1,2-b]pyridazine-3-carbonitrile]	103 nM	12.5 nM	> 1000 nM
